The values that follow come from PubChem BioAssay AID254 (DTP/NCI, 2004).

This assay deals with L1210 leukemia iv in BDF1 mice, survival T/C. Kind of assay: NCI In Vivo Anticancer Drug Screen. Data for tumor model L1210 Leukemia (intravenous) in B6D2F1 (BDF1) mice. Particulars: endpoint: mean survival time, higher = longer survival. Here is the method: The antitumor activity of compounds was measured in mice bearing transplantable tumors. Survival or tumor size were measured and the results are expressed as the measurement made in the treated group (T) divided by the measurement made in the vehicle treated control group (C). The tumor model used in this assay is L1210 Leukemia (intravenous) in B6D2F1 (BDF1) mice

The structures appear in SMILES notation. Values joined by “and” are separate entries in the source; they are usually repeats but may differ in a detail not shown here. Identical values can stand only once. Inconclusive results and toxic doses are left out.

On to `CC1CCC(NC(=O)N(CCCl)N=O)CC1` (stereo unspecified), for which the T/C was 124 % of control (dose: 5.0 mg/kg/injection, schedule: Q04DX004 (ip), vehicle: other); 122 % of control (dose: 5.4 mg/kg/injection, schedule: Q01DX001 (oral), vehicle: other); 187 % of control (dose: 8.6 mg/kg/injection, schedule: Q04DX004 (ip), vehicle: saline with Tween-80); 182 % of control (dose: 10.0 mg/kg/injection, schedule: Q04DX004 (ip), vehicle: other); 152 % of control and 163 % of control (dose: 10.7 mg/kg/injection, schedule: Q01DX001 (ip), vehicle: saline with Tween-80); 165 % of control (dose: 12.0 mg/kg/injection, schedule: Q01DX001 (ip), vehicle: other). Also, the T/C (dose: 12.0 mg/kg/injection, schedule: Q01DX001 (oral), vehicle: other) is 164 % of control and 187 % of control; the T/C (dose: 13.0 mg/kg/injection, schedule: Q04DX004 (ip), vehicle: saline with Tween-80) is 849 % of control and 850 % of control; the T/C (dose: 15.0 mg/kg/injection, schedule: Q01DX001 (ip), vehicle: other) is 352 % of control and 185 % of control and 332 % of control; the T/C (dose: 15.0 mg/kg/injection, schedule: Q04DX004 (ip), vehicle: other) is 734 % of control; the T/C (dose: 16.0 mg/kg/injection, schedule: Q01DX001 (ip), vehicle: other) was 102 % of control; the T/C (dose: 16.0 mg/kg/injection, schedule: Q01DX001 (ip), vehicle: saline with Tween-80) is 189 % of control and 248 % of control. Also, the T/C by setting is: (dose: 20.0 mg/kg/injection, schedule: Q01DX001 (ip), vehicle: other) 532 % of control and 303 % of control and 326 % of control; (dose: 20.0 mg/kg/injection, schedule: Q04DX004 (ip), vehicle: other) 463 % of control; (dose: 20.0 mg/kg/injection, schedule: Q04DX004 (ip), vehicle: saline with Tween-80) 983 % of control; (dose: 24.0 mg/kg/injection, schedule: Q01DX001 (ip), vehicle: other) 153 % of control; (dose: 24.0 mg/kg/injection, schedule: Q01DX001 (ip), vehicle: saline with Tween-80) 347 % of control and 453 % of control; (dose: 27.0 mg/kg/injection, schedule: Q01DX001 (oral), vehicle: other) 590 % of control and 633 % of control and 818 % of control. For the same compound, the T/C (dose: 30.0 mg/kg/injection, schedule: Q01DX001 (ip), vehicle: other) was 683 % of control; the T/C (dose: 30.0 mg/kg/injection, schedule: Q04DX004 (ip), vehicle: other) was 819 % of control; the T/C (dose: 35.0 mg/kg/injection, schedule: Q01DX001 (ip), vehicle: other) was 761 % of control; the T/C (dose: 36.0 mg/kg/injection, schedule: Q01DX001 (ip), vehicle: other) was 153 % of control; the T/C (dose: 36.0 mg/kg/injection, schedule: Q01DX001 (ip), vehicle: saline with Tween-80) was 612 % of control; the T/C (dose: 36.0 mg/kg/injection, schedule: Q01DX001 (oral), vehicle: other) is 751 % of control and 753 % of control and 868 % of control. For the same compound, the T/C is 633 % of control and 786 % of control and 818 % of control (dose: 40.0 mg/kg/injection, schedule: Q01DX001 (oral), vehicle: other); 574 % of control and 600 % of control (dose: 45.0 mg/kg/injection, schedule: Q01DX001 (oral), vehicle: other); 542 % of control and 661 % of control (dose: 50.0 mg/kg/injection, schedule: Q01DX001 (ip), vehicle: other); 202 % of control (dose: 54.0 mg/kg/injection, schedule: Q01DX001 (ip), vehicle: other); 683 % of control and 875 % of control (dose: 54.0 mg/kg/injection, schedule: Q01DX001 (ip), vehicle: saline with Tween-80); 810 % of control and 983 % of control and 179 % of control (dose: 54.0 mg/kg/injection, schedule: Q01DX001 (oral), vehicle: other). The T/C (dose: 55.0 mg/kg/injection, schedule: Q01DX001 (ip), vehicle: other) is 500 % of control and 295 % of control; the T/C (dose: 60.0 mg/kg/injection, schedule: Q01DX001 (ip), vehicle: saline with Tween-80) is 557 % of control; the T/C (dose: 60.0 mg/kg/injection, schedule: Q01DX001 (oral), vehicle: other) is 408 % of control and 434 % of control and 185 % of control; the T/C (dose: 70.0 mg/kg/injection, schedule: Q01DX001 (ip), vehicle: other) is 433 % of control and 226 % of control; the T/C (dose: 71.0 mg/kg/injection, schedule: Q01DX001 (ip), vehicle: saline with Tween-80) was 156 % of control and 167 % of control; the T/C (dose: 80.0 mg/kg/injection, schedule: Q01DX001 (ip), vehicle: other) is 580 % of control and 171 % of control. Besides, the T/C (dose: 81.0 mg/kg/injection, schedule: Q01DX001 (ip), vehicle: other) is 378 % of control [middle of 4 runs]; the T/C (dose: 81.0 mg/kg/injection, schedule: Q01DX001 (ip), vehicle: saline with Tween-80) was 520 % of control and 719 % of control; the T/C (dose: 90.0 mg/kg/injection, schedule: Q01DX001 (ip), vehicle: other) is 511 % of control; the T/C (dose: 90.0 mg/kg/injection, schedule: Q01DX001 (oral), vehicle: other) was 372 % of control and 320 % of control; the T/C (dose: 91.0 mg/kg/injection, schedule: Q01DX001 (oral), vehicle: other) was 336 % of control and 513 % of control and 303 % of control; the T/C (dose: 100.0 mg/kg/injection, schedule: Q01DX001 (ip), vehicle: other) is 350 % of control. For the same compound, the T/C was 201 % of control and 229 % of control (dose: 107.0 mg/kg/injection, schedule: Q01DX001 (ip), vehicle: saline with Tween-80); 188 % of control (dose: 110.0 mg/kg/injection, schedule: Q01DX001 (ip), vehicle: other); 245 % of control (dose: 120.0 mg/kg/injection, schedule: Q01DX001 (ip), vehicle: other); 392 % of control and 248 % of control (dose: 160.0 mg/kg/injection, schedule: Q01DX001 (ip), vehicle: saline with Tween-80); 556 % of control (dose: 240.0 mg/kg/injection, schedule: Q01DX001 (ip), vehicle: saline with Tween-80); 194 % of control and 263 % of control (dose: 360.0 mg/kg/injection, schedule: Q01DX001 (ip), vehicle: saline with Tween-80). Also, the T/C (dose: 540.0 mg/kg/injection, schedule: Q01DX001 (ip), vehicle: saline with Tween-80) is 173 % of control.
Turning to `CC[C@]1(O)C[C@H]2CN(CCc3c([nH]c4ccccc34)[C@@](C(=O)OC)(c3cc4c(cc3OC)N(C=O)[C@H]3[C@@](O)(C(=O)OC)[C@H](OC(C)=O)[C@]5(CC)C=CCN6CC[C@]43[C@@H]65)C2)C1`, the T/C is 112 % of control (dose: 0.32 mg/kg/injection, schedule: Q01DX001 (ip), vehicle: saline); 108 % of control (dose: 0.75 mg/kg/injection, schedule: Q01DX001 (ip), vehicle: saline); 114 % of control (dose: 1.5 mg/kg/injection, schedule: Q01DX001 (ip), vehicle: saline); 109 % of control (dose: 1.6 mg/kg/injection, schedule: Q01DX001 (ip), vehicle: saline); 119 % of control (dose: 2.25 mg/kg/injection, schedule: Q01DX001 (ip), vehicle: saline).
As for `O=NN(CCCl)C(=O)N[C@H]1CCCC[C@H]1Cl`, the T/C (dose: 25.0 mg/kg/injection, schedule: Q01DX001 (ip), vehicle: carboxymethylcellulose (CMC)) is 190 % of control and 262 % of control; the T/C (dose: 51.0 mg/kg/injection, schedule: Q01DX001 (ip), vehicle: carboxymethylcellulose (CMC)) was 427 % of control and 435 % of control; the T/C (dose: 101.0 mg/kg/injection, schedule: Q01DX001 (ip), vehicle: carboxymethylcellulose (CMC)) was 588 % of control and 767 % of control; the T/C (dose: 203.0 mg/kg/injection, schedule: Q01DX001 (ip), vehicle: carboxymethylcellulose (CMC)) was 111 % of control and 202 % of control.
Take `CC(CN1CC(=O)NC(=O)C1)N1CC(=O)NC(=O)C1` (stereo unspecified): the T/C runs as follows: (dose: 108.0 mg/kg/injection, schedule: Q04DX003 (ip), vehicle: Klucel (hydroxypropylcellulose) (HPC)) 165 % of control; (dose: 180.0 mg/kg/injection, schedule: Q04DX003 (ip), vehicle: Klucel (hydroxypropylcellulose) (HPC)) 176 % of control; (dose: 300.0 mg/kg/injection, schedule: Q04DX003 (ip), vehicle: Klucel (hydroxypropylcellulose) (HPC)) 191 % of control.
